From US8278072B1, “Method for synthesis of sialylated products using reversible sialylation” (Health Research, Inc., priority 2007, dated 2012)

Target: T1, ST3Gal-II (Rattus norvegicus, UniProt Q11205)
T1 construct: purchased Calbiochem
T1 sequence (Q11205 1-350): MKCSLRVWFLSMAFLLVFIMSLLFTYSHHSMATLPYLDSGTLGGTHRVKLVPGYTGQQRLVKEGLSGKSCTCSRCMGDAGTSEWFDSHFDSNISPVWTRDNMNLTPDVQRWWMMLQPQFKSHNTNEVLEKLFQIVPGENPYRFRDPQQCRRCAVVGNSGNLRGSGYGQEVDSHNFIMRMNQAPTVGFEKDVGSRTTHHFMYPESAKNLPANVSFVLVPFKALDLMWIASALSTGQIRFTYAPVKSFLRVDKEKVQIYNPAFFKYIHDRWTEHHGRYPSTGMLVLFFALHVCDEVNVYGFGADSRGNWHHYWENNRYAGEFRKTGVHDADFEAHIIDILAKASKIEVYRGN
Test: Reverse sialylation equilibrium constant (Keq) and 5′-CMP dose dependence
Assay type: biochemical
Settings: donor 0.15 mM [2], 0.15 mU ST3Gal-II, 2 hours; read-out: concentration of 5′-CMP that mediated half-maximal transfer of [9-3H]NeuAc
Protocol: FIG. 2. Equilibrium constant. a. Reversible sialyltransferase activity at increasing concentration of 5′-CMP. 0.15 mM of donor [9-^3H]NeuAcα2,3Galβ1,3(4-FGlcNAcβ1,6)GalNAcα-O-Bn [9-^3H[2]] was incubated with varying concentrations of 5′-CMP and 0.15 mU ST3Gal-II under conditions described in FIG. 1 for 2 hours. The consumption of the [9-^3H]NeuAc benzyl glycoside donor was measured by subjecting the incubation mixture to Sep-Pak C18 fractionation, which binds the donor and not CMP-[9-^3H]NeuAc. The reaction proceeded to ½ the maximum extent at 80 μM 5′-CMP. b. Equilibrium constant Keq (=0.35) calculated for data in panel a. c. Varying concentrations of 5′-CMP was sialylated with ST3Gal-II (2.0 mU) using either 0.15 mM (panel c) or 1.5 mM (not shown) sialyl donor [9-^3H]NeuAcα2,3Galβ1,3GalNAcβ1,3Galα-O-Me [9-^3H[3]] for 4 hours. The product CMP-[9-^3H]NeuAc and the unused [9-^3H[3]] were separated and quantitated by Dowex-1-Formate method. d. Equilibrium constant, Keq=98.9. Diamonds denote data from 1.5 mM runs while data from 0.15 mM runs are depicted by squares.
a) Biogel P2 chromatography: A Biogel P2 column (Fine Mesh; 1.0×116.0 cm) was used with 0.1 M pyridine acetate (pH5.4) as the eluent at room temperature. […] Fractions of 1.0 ml were collected. The bound material was then eluted with 0.5M GlcNAc or 0.2M Gal in the same buffer. […] Calculation of equilibrium constant, Keq: Equilibrium constant was calculated for selected reversible bimolecular reactions that are denoted by:
[formula] Here, [9-^3H]D* denotes the radiolabeled donor and D′ is the donor after removal of sialic acid. Similarly, A and [9-^3H]A* denote the acceptor before and after incorporation of NeuAc. In each run, unreacted [9-^3H]D* and product [9-^3H] A* are measured using radioactivity measurements. The equilibrium constant (Keq=kreverse/kforward, dimensionless units) are then determined using the following equation, where terms in square brackets denote concentrations:
[formula] [D0] and [A0] are initial donor and acceptor concentrations. A plot of [D*]/([D0]−[D*]) versus [A*]/([A0]−[A*]) yields Keq from slope data. Keq<1 implies that the forward reaction is favored and the reaction proceeds to the right side to form [9-^3H]A* efficiently. Liquid Chromatography Coupled with Tandem Mass Spectrometry (LC/MS/MS)
Similar results were observed upon increasing concentrations of 5′-CMP when [9-^3H]NeuAcα2,3Galβ1,3(4-FGlcNAcβ1,6) GalNAcα-O-Bn [9-^3H[2]] was donor (FIG. 2a, b). The concentration of 5′-CMP that mediated half-maximal transfer of [9-^3H]NeuAc was 80 μM. The bimolecular equilibrium constant (Keq) for this reaction was 0.35 (dimensionless units, Table I). Indeed, the Keq varied depending on the donor and it was 98.9 when the donor was based on the globo glycolipid, [9-^3H]NeuAcα2,3Galβ1,3GalNAcβ1,3 Gala-O-Me [[9-^3H] [3]] (FIG. 2c, d). Upon comparing and [3], it is apparent that reverse sialylation proceeds more effectively in the case of [2]. To further confirm the above estimates of Keq for core-2 based structures, we also calculated this parameter for our previously published data where [9-^3H]CMP-NeuAc was donor and mucin core-2 tetrasaccharide Galβ1,4GlcNAcβ1,6(Galβ1,3)GalNAcα-O-Bn was acceptor. In this case, Keq measured with respect to the rate of mucin core-2 sialylation was 5.55 (data not shown), which translates to a reverse sialylation Keq of 0.18.

- EC50: 80 µM
Compound: Nc1ccn([C@@H]2O[C@H](COP(=O)(O)O)[C@@H](O)[C@H]2O)c(=O)n1 [5′-CMP, Cytidine 5′-monophosphate]
